Measurements: patent publication US4614746A, “5-fluorobenzonitrile derivatives for increasing the lean meat to fat ratio and/or enhancing the growth rate of warm-blooded animals” (American Cyanamid Company, priority 1985, dated 1986)

Legend:
CFI female mice [1] = assay: Antilipogenic evaluation of test compounds - mouse study (fat pad and body weight, 12-day feeding); format: in vivo; settings: 12 days
Method: CFI female mice from Carworth Farms are received when they are six-weeks old. They are housed ten to a cage in air-conditioned rooms (22° C. to 25° C.) with automatically-controlled lights, 14 hours on and ten hours off. The basal diet used in these studies is Purina Laboratory Chow (see description below) which is supplied ad libitum. The following is a description of the diet to which the growth-promoting compounds were added. Meat and bone meal, dried skimmed milk, wheat germ meal, fish meal, animal liver meal, dried beet pulp, ground extruded corn, ground oat groats, soybean meal, dehydrated alfalfa metal, cane molasses, animal fat preserved with BHA, vitamin B12 supplement, calcium pantothenate, choline chloride, folic acid, riboflavin supplement, brewer's dried yeast, thiamin, niacin, vitamin A supplement, D-activated plant sterol, vitamin E supplement, calcium carbonate, dicalcium phosphate, iodized salt, ferric ammonium citrate, iron oxide, manganous oxide, cobalt carbonate, copper oxide, zinc oxide. Water is also allowed ad libitum. Thirteen days after arrival, the mice are weighed in groups of ten and assigned at random to the different treatments. Each of the treatments is tested in three replicates, i.e., in three cages of ten mice each. There are ten cages of ten control mice each. Drugs are mixed in the diet at the dosage level indicated. Feed and water are offered ad libitum for a 12-day test period. Feed spilled is collected during the test period. At the end of the test period, the collected feed is weighed, and the mean feed consumption per cage of ten mice is determined for each treatment. The mice are weighed as a group of ten, and the weight gain determined. The mice are sacrificed by cervical dislocation. The right uterine fat pad of each mouse is removed. The fat pads for each cage of ten mice are weighed as a unit. Reduction in fat pad weights of animals is generally indicative of a reduction of total body fat of the treated animals.

CFI female mice [2] = assay: Antilipogenic evaluation of test compounds - mouse study (Example 6, procedure of Example 4); format: in vivo
Method: CFI female mice from Carworth Farms are received when they are six-weeks old. They are housed ten to a cage in air-conditioned rooms (22° C. to 25° C.) with automatically-controlled lights, 14 hours on and ten hours off. The basal diet used in these studies is Purina Laboratory Chow (see description below) which is supplied ad libitum.
Thirteen days after arrival, the mice are weighed in groups of ten and assigned at random to the different treatments. Each of the treatments is tested in three replicates, i.e., in three cages of ten mice each. There are ten cages of ten control mice each. Drugs are mixed in the diet at the dosage level indicated. Feed and water are offered ad libitum for a 12-day test period. Feed spilled is collected during the test period. At the end of the test period, the collected feed is weighed, and the mean feed consumption per cage of ten mice is determined for each treatment. The mice are weighed as a group of ten, and the weight gain determined. The mice are sacrificed by cervical dislocation. The right uterine fat pad of each mouse is removed. The fat pads for each cage of ten mice are weighed as a unit. Reduction in fat pad weights of animals is generally indicative of a reduction of total body fat of the treated animals.
Following the procedure of Example 4, the analogues of the compounds of the invention in the subject Application are evaluated as antilipogenic agents.

Row | SMILES | % Change in Body Weight vs controls (CFI female mice [1]; 50 ppm in diet) | % Reduction in Fat Pad Weight vs Controls (CFI female mice [1]; 50 ppm in diet) | % Change in Body Weight vs controls (CFI female mice [1]; 100 ppm in diet) | % Reduction in Fat Pad Weight vs Controls (CFI female mice [1]; 100 ppm in diet) [%] | % Change in Body Weight vs controls (CFI female mice [1]; 200 ppm in diet) | % Reduction in Fat Pad Weight vs Controls (CFI female mice [1]; 200 ppm in diet) [%] | also measured
1 | CCNCC(O)c1cc(F)cc(C#N)c1 (stereo not drawn) [drawing 16] | +18.8% | +4.3% | -4.1% | -33.3 | +25.3% | -37.9 | –
2 | CCCC(C)NCC(O)c1cc(F)cc(C#N)c1 (stereo not drawn) [drawing 15] | +15.9% | -5.6% | +1.2% | -15.5 | +22.4% | -22.8 | –
3 | CC(C)NCC(O)c1cc(F)cc(C#N)c1 (stereo not drawn) [drawing 14] | +78.10% | +9.90% | +56.93% | -17.71 | +88.32% | -33.29 | % Change in Body Weight vs controls (CFI female mice [1]; 3 ppm in diet): +0.73%; % Change in Body Weight vs controls (CFI female mice [1]; 6 ppm in diet): +40.88%; % Reduction in Fat Pad Weight vs Controls (CFI female mice [1]; 6 ppm in diet): +5.91%; % Change in Body Weight vs controls (CFI female mice [1]; 12.5 ppm in diet): +26.28%; % Reduction in Fat Pad Weight vs Controls (CFI female mice [1]; 12.5 ppm in diet): -11.76%; % Change in Body Weight vs controls (CFI female mice [1]; 25 ppm in diet): +29.20%; % Reduction in Fat Pad Weight vs Controls (CFI female mice [1]; 25 ppm in diet): +9.76%; Mouse Test Fat Pad Weight % ± Control (CFI female mice [2]; 100 ppm): -17.7%; Mouse Test Fat Pad Weight % ± Control (CFI female mice [2]; 200 ppm): -33.3%
4 | CC(C)(C)NCC(O)c1cc(F)cc(C#N)c1 (stereo not drawn) [drawing 24] | – | – | – | – | – | – | Mouse Test Fat Pad Weight % ± Control (CFI female mice [2]; 100 ppm): -38.4%; Mouse Test Fat Pad Weight % ± Control (CFI female mice [2]; 200 ppm): -42.9%
5 | CC(C)NCC(O)c1cc(F)cc(C#N)c1 (stereo not drawn) [3-fluoro-5-[1-hydroxy-2-(isopropylamino)ethyl]-benzonitrile] | – | – | – | – | – | – | effectiveness as an antilipogenic agent (CFI female mice [2]; 100 ppm or 200 ppm in the diet, versus related analogues): generally more effective as an antilipogenic agent than its related analogues
6 | CC(C)(C)NCC(O)c1cc(F)cc(C#N)c1 (stereo not drawn) [drawing 13] | +80.51% | -14.04% | +65.25% | -29.65 | +55.93% | -38.13 | % Change in Body Weight vs controls (CFI female mice [1]; 25 ppm in diet): +96.61%; % Reduction in Fat Pad Weight vs Controls (CFI female mice [1]; 25 ppm in diet): -8.97%
7 | CC(C)N(CC(O)c1cc(F)cc(C#N)c1)C(C)C (stereo not drawn) [drawing 17] | – | – | – | – | +19.05% | -19.36 | % Change in Body Weight vs controls (CFI female mice [1]; second dose, not given): -2.38%; % Reduction in Fat Pad Weight vs Controls (CFI female mice [1]; second dose, not given): -15.39%
